From patent US20230338564A1, “NEODEGRADER CONJUGATES” (Orum Therapeutics, Inc., priority 2020, published 2023)

Key:
Experiment in all cases: In vitro antiproliferation assay, General Procedure 1 (WST-8)
Format in all cases: cell-based
[1] = test system: SK-BR-3 breast cancer cell line; details: SK-BR-3 cells; neoDegrader conjugates (DAR 8) versus comparators; FIGS. 7 and 8
Description: (§1) The ability of neoDegrader conjugates to inhibit cell growth was measured using in vitro anti-proliferation assay. […] Conjugates were diluted in complete cell growth medium using 4-fold serial dilutions and 100 µL was added per well. […] Viability of remaining cells was determined by colorimetric WST-8 assay (Dojindo Molecular Technologies, Inc., Rockville, MD, US). WST-8 was added to 10% of the final volume and plates were incubated at 37° C. in a humidified 5% CO2 incubator for 2-4 hours. Plates were analyzed by measuring the absorbance at 450 nm (A450) in a multi-well plate reader. Background A450 absorbance of wells with media and WST-8 only was subtracted from all values. The percent viability was calculated by dividing each treated sample value by the average value of wells with untreated cells. The percent viability value was plotted against the test sample concentration in a semi-log plot for each treatment. IC50 values were calculated automatically.

[2] = test system: NCI-N87 gastric cancer cell line; details: NCI-N87 cells; neoDegrader conjugates (DAR 8) versus comparators; FIGS. 16 and 17
Description: as §1

[3] = test system: HL-60 (acute myeloid leukemia) cell line; details: AML; conjugates DAR 8, Mylotarg DAR not given
Description: as §1

| Molecule | anti-proliferative activity compared, in words [1] | anti-proliferative activity compared, in words [2] | IC50 [3] [nM] |
| --- | --- | --- | --- |
| Pertuzumab [reference compound] | significantly less active | significantly less active |  |
| Lintuzumab IgG1-Compound (Ia) (conjugate, chains of the INN, looked up, IgG1 conjugated to Compound (Ia)) VH: QVQLVQSGAEVKKPGSSVKVSCKASGYTFTDYNMHWVRQAPGQGLEWIGYIYPYNGGTGYNQKFKSKATITADESTNTAYMELSSLRSEDTAVYYCARGRPAMDYWGQGTLVTVSS VL: DIQMTQSPSSLSASVGDRVTITCRASESVDNYGISFMNWFQQKPGKAPKLLIYAASNQGSGVPSRFSGSGSGTDFTLTISSLQPDDFATYYCQQSKEVPWTFGQGTKVEIK |  |  | 0.012 |
| Lintuzumab IgG1-Compound (Id) (conjugate, chains of the INN, looked up, IgG1 conjugated to Compound (Id)) VH: QVQLVQSGAEVKKPGSSVKVSCKASGYTFTDYNMHWVRQAPGQGLEWIGYIYPYNGGTGYNQKFKSKATITADESTNTAYMELSSLRSEDTAVYYCARGRPAMDYWGQGTLVTVSS VL: DIQMTQSPSSLSASVGDRVTITCRASESVDNYGISFMNWFQQKPGKAPKLLIYAASNQGSGVPSRFSGSGSGTDFTLTISSLQPDDFATYYCQQSKEVPWTFGQGTKVEIK |  |  | > 0.05 |
